Assay results published in patent US5627206A, “Tricyclic inhibitor of matrix metalloproteinases” (Warner-Lambert Company, priority 1995, dated 1997).
Where two headings read alike, the source gives them in different places.

Assays:
[1] = tested on: experimental allergic encephalomyelitis (EAE); conditions: Gijbels et al.; dose dependent; cited from earlier work
[2] = target: T1, GCD (recombinant gelatinase A catalytic domain) (Homo sapiens, UniProt P08253); assay: Inhibition of GCD (recombinant gelatinase A catalytic domain), thiopeptolide substrate; format: biochemical; conditions: thiopeptolide substrate Ac-Pro-Leu-Gly-thioester-Leu-Leu-Gly-OEt
T1 construct: propeptide, C-terminal domain and fibronectin-like insert removed; E. coli host likely
T1 sequence (P08253 110-660): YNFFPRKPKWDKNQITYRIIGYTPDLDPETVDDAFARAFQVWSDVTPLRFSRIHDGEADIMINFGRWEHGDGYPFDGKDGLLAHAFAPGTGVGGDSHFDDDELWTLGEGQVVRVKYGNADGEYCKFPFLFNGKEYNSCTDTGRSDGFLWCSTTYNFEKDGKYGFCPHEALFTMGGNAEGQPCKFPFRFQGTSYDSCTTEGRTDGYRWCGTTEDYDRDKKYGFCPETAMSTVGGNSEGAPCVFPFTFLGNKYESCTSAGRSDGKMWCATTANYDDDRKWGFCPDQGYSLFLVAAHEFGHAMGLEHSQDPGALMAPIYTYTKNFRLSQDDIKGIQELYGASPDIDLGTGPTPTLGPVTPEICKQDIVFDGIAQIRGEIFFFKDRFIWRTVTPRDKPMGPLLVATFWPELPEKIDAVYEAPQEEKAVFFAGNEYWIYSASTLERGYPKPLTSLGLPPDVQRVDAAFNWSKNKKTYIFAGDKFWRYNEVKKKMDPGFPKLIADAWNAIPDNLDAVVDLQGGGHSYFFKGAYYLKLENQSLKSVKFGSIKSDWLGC
Source text: Matrix metalloproteinases share high sequence homology and the catalytic domains of each of the MMPs can be identified by sequence alignment. The gene for the catalytic domain of stromelysin-1, SCD, was constructed by removing the propeptide and C-terminal domain (Ye Q.-Z., Johnson L.L, Hupe D.J., and Baragi V., "Purification and Characterization of the Human Stromelysin Catalytic Domain Expressed in Escherichia coli", Biochemistry,1992;31:11231-11235). The gelatinase A catalytic domain, GCD, was similarly constructed with the additional removal of the fibronectin-like insert which interrupts the catalytic domain (Ye Q.-Z., Johnson L.L, Yu A.E., and Hupe D., "Reconstructed 19 kDa Catalytic Domain of Gelatinase A is an Active Proteinase", Biochemistry, 1995;34:4702-4708). Both truncated proteins cleave synthetic peptide substrates and the natural substrates proteoglycan and gelatin in a manner similar to the full-length enzymes and can be used to identify matrix metalloproteinase inhibitors.
Experiments were carried out with both the full-length enzymes and the catalytic domains. […] IC50 values were determined using a thiopeptolide substrate, Ac-Pro-Leu-Gly-thioester-Leu-Leu-Gly-OEt (Ye Q.-Z., Johnson L.L., Hupe D.J., and Baragi V., "Purification and Characterization of the Human Stromelysin Catalytic Domain Expressed in Escherichia coli", Biochemistry,1992;31:11231-11235). […]

[3] = target: T2, collagenase (full-length native enzyme) (Homo sapiens, UniProt P03956); assay: Inhibition of collagenase (full-length native enzyme), thiopeptolide substrate; format: biochemical
T2 construct: collagenase (full-length native enzyme)
T2 sequence (P03956 100-469): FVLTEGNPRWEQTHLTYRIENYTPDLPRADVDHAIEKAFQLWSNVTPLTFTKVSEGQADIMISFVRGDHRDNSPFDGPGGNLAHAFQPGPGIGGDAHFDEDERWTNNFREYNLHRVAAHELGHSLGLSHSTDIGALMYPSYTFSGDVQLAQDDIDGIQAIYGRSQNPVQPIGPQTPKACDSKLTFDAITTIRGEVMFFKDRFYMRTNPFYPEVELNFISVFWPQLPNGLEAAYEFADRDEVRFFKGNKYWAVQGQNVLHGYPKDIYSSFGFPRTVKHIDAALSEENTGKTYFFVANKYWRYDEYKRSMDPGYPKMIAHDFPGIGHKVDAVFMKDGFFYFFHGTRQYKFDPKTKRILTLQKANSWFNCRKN
Experimental: Experiments were carried out with both the full-length enzymes and the catalytic domains. […] IC50 values were determined using a thiopeptolide substrate, Ac-Pro-Leu-Gly-thioester-Leu-Leu-Gly-OEt (Ye Q.-Z., Johnson L.L., Hupe D.J., and Baragi V., "Purification and Characterization of the Human Stromelysin Catalytic Domain Expressed in Escherichia coli", Biochemistry,1992;31:11231-11235). […] IC50 values for gelatinase B, and collagenase, were >100 μM.

EAE Rats [4] = assay: EAE Lewis rat acute model, Protocol 1 (daily oral dosing Day 0-14); format: in vivo
Experimental: (§1) Female Lewis rats were purchased from Harlan Sprague-Dawley (Indianapolis, IN) and were used at 8 to 10 weeks of age. Active EAE was induced by injection of 0.05 mL emulsion of myelin basic protein (MBP) with complete Freund's adjuvant (CFA), containing 25 μg guinea pig MBP and 100 μg Mycobacterium butyricum (Difco Laboratories, Detroit, MI) into one hind footpad. Immunized rats were observed daily for clinical signs of EAE and scored as follows: 0, no symptoms; 1, loss of tail tonicity; 2, paresis; 3, hind limb paralysis, often accompanied by incontinence; and 4, death. Formalin-fixed brain slice sections were stained with hematoxylin-eosin and evaluated microscopically for perivascular and parenchymal infiltration. Compound was administered by gavage as a solution in sterile saline in a volume of 500 μL. […] Several different protocols were used to define the efficacy and timing requirements for potency.
Protocol 1: Compound was administered daily at 50 mg/kg beginning on Day 0 and continuing through Day 14, with MBP in CFA administered on Day 0 also. […] N=5 for all groups.

EAE Rats [5] = assay: EAE Lewis rat acute model, Protocol 2 (alternate-day oral dosing Day 0-14); format: in vivo; conditions: for Effect on EAE Rats (≥Paresis/Total): CFA + MBP control 5/7
Experimental: as §1
Controls run in parallel included CFA only and MBP in CFA. N=4 for treatment groups. N=8 for controls.

[6] = tested on: leukocyte migration across the blood-brain barrier; assay: Histology of brain slices from Protocol 1 EAE animals; format: in vivo, Lewis rat; conditions: 50 mg/kg daily dosing schedule
Experimental: The activity of Example 2 in suppressing the inflammatory disease associated with EAE was tested using the Lewis rat acute model. Female Lewis rats were purchased from Harlan Sprague-Dawley (Indianapolis, IN) and were used at 8 to 10 weeks of age. Active EAE was induced by injection of 0.05 mL emulsion of myelin basic protein (MBP) with complete Freund's adjuvant (CFA), containing 25 μg guinea pig MBP and 100 μg Mycobacterium butyricum (Difco Laboratories, Detroit, MI) into one hind footpad. Immunized rats were observed daily for clinical signs of EAE and scored as follows: 0, no symptoms; 1, loss of tail tonicity; 2, paresis; 3, hind limb paralysis, often accompanied by incontinence; and 4, death. Formalin-fixed brain slice sections were stained with hematoxylin-eosin and evaluated microscopically for perivascular and parenchymal infiltration. Compound was administered by gavage as a solution in sterile saline in a volume of 500 μL. The dose of 50 mg/kg typically required 7.5 mg of compound per rat. Several different protocols were used to define the efficacy and timing requirements for potency.

[7] = tested on: Mycobacterium footpad edema; assay: Mycobacterium footpad edema assay (MFE); format: in vivo, Wistar rats; conditions: all values of Table IV (2, 10, 50 mg/kg)
Experimental: (§2) The activity of Example 2 as a general inhibitor of inflammation was tested using the Mycobacterium footpad edema assay (MFE) in Wistar rats. Compound was administered daily by gavage at 2 mg/kg, 10 mg/kg, or 50 mg/kg.
Male outbred Wistar rats (110-125 g, Charles River Labs, Portage, Mich.) were used in this study. Rats were housed for a minimum of 1 week before use. Food and water were supplied ad libitum. Foot pad edema was induced following the method described by Martel R.R. and Klicius J., "Comparisons in rats of the antiinflammatory and gastric irritant effects of etodolac with several clinically effective antiinflammatory drugs", Agents and Actions, 1982;12:295. […] Swelling was assessed on the third day by subtracting the initial volume (determined immediately following the Mycobacterium injection) from the final volume of the treated paw. Paw volume was determined by mercury plethysmography. The percent inhibition of edema achieved in each compound-treated group was determined by comparison with swelling in the vehicle-treated group and the ID50 values were determined by regression analysis. Statistical significance between experimental groups was evaluated using a Student's t-test.

[8] = Plasma concentrations after oral dosing; format: in vivo, Wistar rats; conditions: for Cmax: read-out: plasma concentration (Cmax)
Experimental: as §2, with “mg/kg. […] The bioavailability of this compound is therefore well in excess of the effective range of gelatinase A inhibition determined in the in vitro assays.” for “mg/kg.”

| SMILES | effect on development or clinical expression of EAE [1] | IC50 [2] [nM] | IC50 [3] [nM] | average scores for the treated group (EAE Rats [4]; 50 mg/kg daily, Day 0 through Day 14) | percentage of animals responding (total inhibition or reduction of symptoms) (EAE Rats [4]; 50 mg/kg daily, Day 0 through Day 14, N=5) [%] | Effect on EAE Rats (≥Paresis/Total) (EAE Rats [4]; CFA + Example 2 (no MBP), 50 mg/kg daily oral from Day 0) | Effect on EAE Rats (≥Paresis/Total) (EAE Rats [4]; CFA + MBP + Example 2, 50 mg/kg daily oral from Day 0, CFA + MBP control 5/5) | Effect on EAE Rats (≥Paresis/Total) (EAE Rats [5]; CFA + MBP + Example 2, 10 mg/kg alternate days) | Effect on EAE Rats (≥Paresis/Total) (EAE Rats [5]; CFA + MBP + Example 2, 50 mg/kg alternate days) | significance (p) of decrease in disease severity (EAE Rats [5]; Day 15, 10 or 50 mg/kg alternate days) | CNS inflammation [6] | cuff formation [6] | leukocyte migration across the blood-brain barrier [6] | statistical significance of inhibition of the inflammatory response [7] | Cmax and AUC(0-4) dose dependence ([8]; 2, 10, 50 mg/kg) | Cmax ([8]; rat, plasma, po, 2-mg/kg dose) [µM] | Cmax ([8]; rat, plasma, po, 10-mg/kg dose) [µM] | Cmax ([8]; rat, plasma, po, 50-mg/kg dose) [µM] | Tmax ([8]; rat, plasma, po, post-treatment, read-out: time of peak plasma concentration) [h] | plasma concentration decline ([8]; through the subsequent 4 hours after peak) |
| --- | --- | --- | --- | --- | --- | --- | --- | --- | --- | --- | --- | --- | --- | --- | --- | --- | --- | --- | --- | --- |
| CNC(=O)[C@H](Cc1c[nH]c2ccccc12)NC(=O)[C@@H](CC(=O)NO)CC(C)C [GM6001] | suppressed the development or reversed the clinical expression of experimental allergic encephalomyelitis (EAE) in a dose dependent manner |  |  |  |  |  |  |  |  |  |  |  |  |  |  |  |  |  |  |  |
| O=C(O)CCC(=NO)c1ccc2oc3ccccc3c2c1 [Example 2, 4-Dibenzofuran-2-yl-4-hydroximino-butyric acid] |  | 40 | > 100000 | substantially reduced | 100 | 0/5 | 1/5 | 0/4 | 0/4 | ≤ 0.01 | little CNS inflammation | no cuff formation | completely prevented | statistically significant | increase proportionately with dose | 4.62 | 38.8 | 163 | 1 | declined mono-exponentially |
